We go through eleven compounds from publication PMC7037447, “Syntheses of L-Rhamnose-Linked Amino Glycerolipids and Their Cytotoxic Activities against Human Cancer Cells” (Molecules, 2020).

Read-outs that look alike come from different tables or passages of the source.

Data set [1] has as its system DU-145. Nature of the data set: MTS cell viability assay, 48 h. Format: cell-based, human. The settings on record: DU-145, 48 h. The method, then:
(§1) The cells were incubated with increasing concentrations of the compounds (0–30 µM) for 48 h followed by assessment of cell viability using the MTS assay. […] This compound carries a primary amino group at the sn-3 position of the glycerolipid and L-rhamno sugar at the sn-2 position via an α-rhamnosidic linkage.
(§2) The cell lines were cultured from frozen stocks originally obtained from ATCC (Manassas, VA, USA). MDA-MB-231, JIMT-1, DU145, MDA-MB-468, Hs578t and MDA-MB-453 were grown in DMEM medium supplemented with 10% FBS. BT-474 cells were grown in DMEM/F12 medium supplemented with 10% FBS. MiaPaCa2 was cultured in DMEM supplemented with 10% FBS and 2.5% horse serum. All the media contained penicillin/streptomycin. U-251 and U-87 in Eagle MEM supplemented by 10% FBS, 1% Non-essential amino acids, 1 mM sodium pyruvate and 2 mM glutamine. BT-549 was cultured in RPMI 1640 medium supplemented with 10% FBS.
(§3) The effects of the GAELs on the viability of the epithelial cancer cell lines were determined as previously described. Briefly, equal numbers of the cells were dispersed into 96-well plates. After 24 h, the cells were incubated with the compounds (0–30 µM) for 48 h. MTS reagent [3-(4,5-dimethylthiazol-2-yl)-5-(3-carboxymethoxyphenyl)-2-(4-sulfophenyl)-2H-tetrazolium, inner salt; Promega, Madison, WI, USA] (20% v/v) was subsequently added and the plates were incubated for 1–4 h in a CO2 incubator followed by measurement of the medium at OD490 with a plate reader (Molecular Devices).
On the technique in general: Tetrazolium dyes change colour on reduction, which living cells bring about.

The subject of data set [2] is MiaPaCa2. The data set can be described thus: MTS cell viability assay, 48 h. Format: cell-based, human. How it is done:
as §1, §2, §3

For data set [3], the system named is PC-3. The data set can be described thus: MTS cell viability assay, 48 h. The class given is cell-based, human. The note with it: PC-3, 48 h. The method, then:
as §1
as §3, with “Devices). Wells with media but no cells were treated in similar fashion and the values utilized as blank.” for “Devices).”

For data set [4], the system named is human epithelial cancer cell lines: breast (MDA-MB-231, JIMT-1), pancreas (MiaPaCa2) and prostate (DU-145, PC-3). Nature of the data set: MTS cell viability assay, 48 h, across the panel of cell lines. Format: cell-based. The note with it: for CC50: read-out: CC50 values across the cell lines; for Cytotoxicity against the cancer cells: highest dose tested 30 µM, data not shown. The method, then: as §1, §2
as §3, with “Devices). Wells with media but no cells were treated in similar fashion and the values utilized as blank.” for “Devices).”

Data set [5] deals with MDA-MB-231. The data set can be described thus: MTS cell viability assay, 48 h. Format: cell-based, human. The note with it: MDA-MB-231, 48 h. How it is done:
[…] […] This compound carries a primary amino group at the sn-3 position of the glycerolipid and L-rhamno sugar at the sn-2 position via an α-rhamnosidic linkage.
as §2
The effects of the GAELs on the viability of the epithelial cancer cell lines were determined as previously described. Briefly, equal numbers of the cells were dispersed into 96-well plates. […] MTS reagent [3-(4,5-dimethylthiazol-2-yl)-5-(3-carboxymethoxyphenyl)-2-(4-sulfophenyl)-2H-tetrazolium, inner salt; Promega, Madison, WI, USA] (20% v/v) was subsequently added and the plates were incubated for 1–4 h in a CO2 incubator followed by measurement of the medium at OD490 with a plate reader (Molecular Devices).

The subject of data set [6] is JIMT-1. Nature of the data set: MTS cell viability assay, 48 h. The class given is cell-based, human. The note with it: JIMT-1, 48 h. How it is done:
as §1, §2
as §3, with “Devices). Wells with media but no cells were treated in similar fashion and the values utilized as blank.” for “Devices).”

Data set [7] concerns human epithelial cancer cell lines: breast (MDA-MB-231, JIMT-1), pancreas (MiaPaCa2) and prostate (DU-145, PC-3). On the set-up: method as in PMID 28177244. The settings on record: range over all cell lines; read-out: CC50 values across the cell lines; cited from earlier work.
Data set [8] deals with MDA-MB-231. On the set-up: method as in PMID 28177244. The note with it: cited from earlier work.
Data set [9] has as its system PC-3. On the set-up: method as in PMID 28177244. The note with it: cited from earlier work.
Data set [10] concerns MiaPaCa2. On the set-up: method as in PMID 28177244. The settings on record: cited from earlier work.
Data set [11] concerns JIMT-1. On the set-up: method as in PMID 28177244. The note with it: cited from earlier work.
For data set [12], the system named is DU-145. On the set-up: method as in PMID 28177244. The settings on record: cited from earlier work.
Data set [13] deals with DU-145. Nature of the data set: Cell membrane integrity, ethidium homodimer-1 (EthD-1) staining. The settings on record: DU-145, 0.01%, 10 min. Format: cell-based. How it is done:
(§4) After determining that the mechanism of cell death of compound 3 is independent of caspases-mediated apoptosis, we evaluated if cell death was due to membrane disruption or lysis using the cell impermeant ethidium homodimer-1 (EthD-1) dye that emits red fluorescence upon binding to DNA [13, 14]. DU-145 and JIMT-1 were treated with compound 3 at 10 and 15 µM, respectively. After 4–6 h, the cells were treated with EthD-1 dye and monitored under fluorescence microscopy.
(§5) Equal numbers of JIMT-1 and DU145 cells were dispersed into 96-well plates. After 24 h the cells were incubated with varying concentration of compounds 3 or 4 (4–6 µM) for 5–6 h. Subsequently, 2 µM of the cell membrane impermeant dye, ethidium homodimer-1 (EthD-1 (Molecular Probes, Eugene, OR, USA) that emits red fluorescence upon binding to DNA was added and the cells analysed by fluorescence microscopy. EthD-1 staining was compared to negative controls with no treatment and positive control treated with 0.01% Triton X-100 for 10 min.
(§6) Figure 5 Evaluation of effect of compound 3 on cell membrane of DU-145 and JIMT-1 cell lines using cell impermeant ethidium homodimer-1 (EthD-1) dye that emits red fluorescence upon binding to DNA.

The test system of data set [14] is JIMT-1. The data set is described as above. The class given is cell-based. The settings on record: JIMT-1, 0.01%, 10 min. The method, then: as §4, §5, §6
The mark [15] stands for this setting: Homo sapiens, MTS, read-out: CC50.
[16] abbreviates: Homo sapiens, MIA PaCa-2, MiaPaCa2, 48 h, MTS, read-out: CC50.
Setting [17] is: Homo sapiens, 48 h, range or bound over all cell lines, 48 h, MTS.

Consider “1-Hexadecyl-2R-methoxyl-3-O-α-L-rhamnopyranosyl-sn-glycerol [Compound 2]”, for which the CC50 is 25 µM in the data set on DU-145 [1] (MTS, read-out: CC50); greater than 30 µM with MiaPaCa2 [2] (MiaPaCa2, 48 h, MTS, read-out: CC50); 25 µM with PC-3 [3] (MTS, read-out: CC50); no less than 21.5 µM in [4] (range or bound over all cell lines, 48 h, MTS); 26 µM in the data set on MDA-MB-231 [5] (MTS, concentration decreasing cell viability by 50% relative to untreated control, read-out: CC50); 28 µM in the data set on JIMT-1 [6] (MTS, read-out: CC50).
For the compound `O=C(O)CCCc1ccc(N(CCCl)CCCl)cc1` [Chlorambucil, reference compound], the CC50 in the data set with DU-145 [1] (Homo sapiens) is greater than 150 µM; in the data set with MiaPaCa2 [2] (Homo sapiens, MIA PaCa-2, 48 h), greater than 150 µM; in the data set with PC-3 [3] (Homo sapiens), greater than 150 µM; in [4] (Homo sapiens, 48 h), greater than 150 µM; in the data set with MDA-MB-231 [5] (Homo sapiens) it was greater than 150 µM; in the data set with JIMT-1 [6] (Homo sapiens) it was greater than 150 µM.
As to `CCCCCCCCCCCCCCCCOCC(CO[C@@H]1O[C@@H](CO)[C@H](O)[C@@H](O)[C@@H]1N)OC` (stereo partly drawn) [Compound 1], the CC50 in data set [7] is 6.5 to 12 µM; with MDA-MB-231 [8], 11 µM; in the data set on PC-3 [9], 12.5 µM; in the data set on MiaPaCa2 [10], 7.5 µM; with JIMT-1 [11] it was 6.5 µM; in the data set on DU-145 [12], 12.5 µM.
As for `CCCCCCCCCCCCCCCCOCC(CNC(=O)CCc1ccc(O)cc1)O[C@@H]1O[C@@H](C)[C@H](O)[C@@H](O)[C@H]1O` (stereo partly drawn) [Compound 4], the CC50 is 30 µM with DU-145 [1] (setting [15]); greater than 30 µM with MiaPaCa2 [2] (setting [16]); 21.5 µM with PC-3 [3] (setting [15]); no less than 21.5 µM in [4] (setting [17]); 23 µM with MDA-MB-231 [5] (Homo sapiens, MTS, concentration decreasing cell viability by 50% relative to untreated control, read-out: CC50); 25 µM in the data set on JIMT-1 [6] (setting [15]).
As to `CCCCCCCCCCCCCCCCOCC(CN)OC1OC(CO)C(O)C(O)C1O` [Compound 5, 3-Amino-1-hexadecyloxyl-2R-O-β-L-glucopyranosyl-sn-glycerol], the CC50 (in the data set with DU-145 [1] (setting [15]); in the data set on MiaPaCa2 [2] (setting [16]); in the data set on PC-3 [3] (setting [15]); in [4] (setting [17]); with JIMT-1 [6] (setting [15])) was greater than 30 µM each time. In addition, in data set [4] (depending on the cell line, up to 30 µM, 48 h), the Loss of viability is given as 0–35%.
Take `CCCCCCCCCCCCCCCCOCC(CN)OC1OC(CN)C(O)C(O)C1O` [Compound 6, 3-Amino-1-hexadecyloxyl-2R-(6′-amino-6′deoxy-O-α-L-mannopyranosyl)-sn-glycerol]: the CC50 is 17.5 µM in the data set on DU-145 [1] (setting [15]); 19 µM in the data set on MiaPaCa2 [2] (setting [16]); 25 µM with PC-3 [3] (setting [15]); 12.5 to 25 µM in data set [4] (setting [17]); 12.5 µM with JIMT-1 [6] (setting [15]). Besides, the “Times less active than glycolipid 3” value in data set [4] (CC50 compared with 3) was 2- to 4.
On to `CCCCCCCCCCCCCCCCOCC(CO[C@H]1O[C@H](CO)[C@@H](O)[C@H](O)[C@H]1N)OC` (stereo partly drawn) [Compound 7], for which the CC50 with PC-3 [9] is 13.5 µM; with MiaPaCa2 [10], 9 µM; with JIMT-1 [11], 9 µM; in the data set with DU-145 [12] it was 9 µM.
In the case of `OC[C@@H]1OC(O)[C@@H](O)[C@H](O)[C@H]1O` (stereo partly drawn) [L-glucose], the “Cytotoxicity against the cancer cells” value in [4] is “not cytotoxic”.
In the case of `OC[C@@H]1OC(O)[C@H](O)[C@H](O)[C@H]1O` (stereo partly drawn) [L-mannose], the “Cytotoxicity against the cancer cells” value in [4] is reported as “not cytotoxic”.
Still for that read-out and setting: next, `C[C@H](O)[C@H](O)[C@@H](O)[C@@H](O)C=O` [rhamnose, L-Rhamnose]: “not cytotoxic”.
Triton X-100 [reference compound]: the “EthD-1 staining, positive control” value with DU-145 [13] and with JIMT-1 [14] was “stained bright red” each time.
